We go through one compound from PMC6361926, “A chemical approach for global protein knockdown from mice to non-human primates” (Cell Discovery, 2019).

The experiment deals with Bruton's tyrosine kinase (BTK) (Mus musculus, UniProt P35991). The experiment in a line: PROTAC degradation of BTK in mouse tissues in vivo, immunoblot. The format is cell-based. (In general: In western blotting, separated proteins are transferred to a membrane and probed.)
Chain of Bruton's tyrosine kinase (BTK) (P35991 2-659): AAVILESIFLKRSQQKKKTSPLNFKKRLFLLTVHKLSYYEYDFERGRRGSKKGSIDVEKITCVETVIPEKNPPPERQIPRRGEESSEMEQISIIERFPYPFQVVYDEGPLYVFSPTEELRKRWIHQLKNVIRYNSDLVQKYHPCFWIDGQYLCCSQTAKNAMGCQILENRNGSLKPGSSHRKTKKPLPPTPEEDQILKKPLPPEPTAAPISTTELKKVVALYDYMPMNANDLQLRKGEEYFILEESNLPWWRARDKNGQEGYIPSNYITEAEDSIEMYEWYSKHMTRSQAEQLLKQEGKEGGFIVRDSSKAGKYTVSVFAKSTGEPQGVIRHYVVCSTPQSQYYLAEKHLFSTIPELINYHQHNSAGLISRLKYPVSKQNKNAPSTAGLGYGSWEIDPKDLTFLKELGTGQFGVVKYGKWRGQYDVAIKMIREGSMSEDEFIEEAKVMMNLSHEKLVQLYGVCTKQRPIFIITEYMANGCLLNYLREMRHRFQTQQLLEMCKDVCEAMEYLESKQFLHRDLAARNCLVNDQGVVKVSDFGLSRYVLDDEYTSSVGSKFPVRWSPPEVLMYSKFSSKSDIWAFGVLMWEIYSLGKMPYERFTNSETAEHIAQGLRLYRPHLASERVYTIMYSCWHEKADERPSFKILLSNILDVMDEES

Consider `Nc1ncnc2c1c(-c1ccc(Oc3ccccc3)cc1)nn2[C@@H]1CCCN(C(=O)CCCc2cn(CCOCCOCCNc3cccc4c3C(=O)N(C3CCC(=O)NC3=O)C4=O)nn2)C1` (stereo partly shown) [P13IS], for which the “PROTAC degradation of BTK in mouse tissues in vivo, immunoblot” value was “BTK in adipose, thymus, abdominal lymph node, and axillary lymph node was degraded efficiently”.
